# Results taken from patent US8288365B2, “Phenazopyridine compounds” (Pinnacle Pharmaceuticals, Inc., priority 2008, dated 2012).
# Like-named read-outs stand apart in the source and are kept apart here.
# Columns and labels:
# rats [1] = details: doses up to 50 mg/kg/day or 110 mg/kg/day; cited from earlier work
# [2] = cited from earlier work
# mammalian cells = details: cited from earlier work
# mice = details: i.p.; cited from earlier work
# rabbits = details: 39 mg/kg/day; cited from earlier work
# bacteria = details: cited from earlier work
# rats [3] = details: cited from earlier work
# [4] = Solubility of PAP prodrugs in 0.1N HCl; assay type: physicochemical; details: for solubility: simulated gastric fluid
# [5] = Oral bioavailability of PAP prodrugs in rats (plasma PAP by LC-MS-MS); assay type: in vivo
# Experimental: The oral bioavailability of PAP (phenazopyridine) prodrugs was evaluated in healthy rats. All the PAP amide (amino acid derivatives) bases were dissolved in 0.1N HCl (the same result can be obtained with a lower molarity), while the carbamates were dissolved in PEG-400 due to the very poor aqueous solubility of the PAP-carbamates. In general, all of the amino acid amide derivatives of PAP had higher water solubility than those of the PAP-carbamates. In another PK study, PAP.HCL salt, Gly-PAP.HCl salt and Gly-PAP.mesylate salt were dissolved in water, affording a clear solution in each case prior to oral administration.
# (§1) The rats were fasted overnight prior to dosing. Appropriate amount of each compound was administered via gastric gavages, and at predetermined time (1, 2, 4, 6, and 24 h) blood samples were withdrawn from the rats. The whole blood was centrifuged immediately, and supernatant (plasma) was collected. The plasma samples were assayed for PAP using LC-MS-MS.
# dogs = experiment: Emesis in dogs after oral TID dosing; assay type: in vivo; details: dogs (1 male/1 female), oral gavage TID, 24.8 mg/kg phenazopyridine base equivalent per dose
# Experimental: Dogs (1 male/1 female) were dosed by oral gavage 3 times (TID), once every 8 hours, with 40 mg/kg Gly-PAP or 29 mg/kg phenazopyridine HCl (doses contained an equivalent amount of 24.8 mg/kg phenazopyridine base). […] Results showing reduction of the GI side effect of emesis are illustrated in FIG. 18.
# [6] = Pharmacokinetics of PAP and intact Gly-PAP in male rats after oral gavage; assay type: in vivo
# Experimental: Pharmacokinetics for PAP and Gly-PAP (intact prodrug) were assessed in male rats following administration by oral gavage of mg/kg doses. Rats were fasted overnight prior to dosing. Blood samples were withdrawn at 0.25, 0.5, 1, 2, 4, 6, and 24 hours. The whole blood was centrifuged immediately, and supernatant (plasma) was collected. The plasma samples were assayed for PAP and Gly-PAP by LC-MS-MS.
# [7] = Pharmacokinetics of PAP and intact Gly-PAP in dogs (plasma and urine) after oral gavage; assay type: in vivo
# Experimental: Pharmacokinetics for PAP and Gly-PAP (intact prodrug) were assessed in dogs following administration by oral gavage of mg/kg doses. Blood (approximately 2 mL) was collected from a jugular vein into tubes containing lithium heparin anticoagulant predose and at 0.083, 0.25, 0.5, 1, 2, 4, 8, 12, and 24 hours postdose. Urine was collected into plastic containers surrounded by wet ice predose (−18 to 0) and 0 to 24 hours postdose. The volume of each sample was recorded. Plasma and urine samples were assayed for PAP and Gly-PAP by LC-MS-MS.
# rats [8] = details: long term (2 years); cited from earlier work
# [9] = PAP pharmacokinetics in rats after oral Gly-PAP salt forms; assay type: in vivo; details: PAP in rat plasma, 2.5 mg/kg PAP base equivalent (2.8 for free base)
# Experimental: The oral bioavailability of PAP (phenazopyridine) prodrugs was evaluated in healthy rats.
# as §1
# The pharmacokinetics of various salts of Gly-PAP were compared following oral administration to rats.
# female mice = details: cited from earlier work
molecule,measurement,setting,value
Nc1ccc(/N=N/c2ccccc2)c(N)n1 [Phenazopyridine],Effects on fertility or embryo-fetal development,rats [1],no effects on fertility or embryo-fetal development
same,Excreted unchanged in urine,[2]; oral,up to 65%
same,Single dose cleared within 24 hours,[2]; within 24 hours,approximately 90%
same,Mutagenicity and clastogenicity,mammalian cells,mutagenic and clastogenic
same,Acute toxicity LD50,mice,180 mg/kg
same,Effects on fertility or embryo-fetal development,rabbits,no effects on fertility or embryo-fetal development
same,Mutagenicity,bacteria,mutagenic
same,Acute toxicity LD50,rats [3]; i.p.,200 mg/kg
same,Acute toxicity LD50,rats [3]; oral,472 mg/kg
"Nc1nc(NC(=O)[C@@H](N)Cc2c[nH]cn2)ccc1/N=N/c1ccccc1 [Histidinyl-PAP, Histidinyl-Phenazopyridine]",solubility,[4],> 10000 µg/mL
"CC(C)[C@H](N)C(=O)Nc1ccc(/N=N/c2ccccc2)c(N)n1 [Valyl-PAP, Valyl-Phenazopyridine]",solubility,[4],> 2500 µg/mL
"NCCCC[C@H](N)C(=O)Nc1ccc(/N=N/c2ccccc2)c(N)n1 [Lysyl-PAP, Lysyl-Phenazopyridine]",solubility,[4],> 2500 µg/mL
"CC(C)COC(=O)Nc1ccc(/N=N/c2ccccc2)c(N)n1 [Isobutylcarbamyl-PAP, Isobutylcarbamyl-Phenazopyridine]",Tmax,"[5]; rats, oral",longer
same,solubility,[4],< 100 µg/mL
"CCOC(=O)Nc1ccc(/N=N/c2ccccc2)c(N)n1 [Ethylcarbamyl-PAP, Ethylcarbamyl-Phenazopyridine]",solubility,[4],< 100 µg/mL
"C[C@H](N)C(=O)Nc1ccc(/N=N/c2ccccc2)c(N)n1 [Alanyl-PAP, Alanyl-Phenazopyridine]",solubility,[4],2000 µg/mL
"CSCC[C@H](N)C(=O)Nc1ccc(/N=N/c2ccccc2)c(N)n1 [Methionyl-PAP, Methionyl-Phenazopyridine]",solubility,[4],1000 µg/mL
"Nc1nc(NC(=O)OCc2ccccc2)ccc1/N=N/c1ccccc1 [Benzylcarbamyl-PAP, Benzylcarbamyl-Phenazopyridine]",solubility,[4],< 100 µg/mL
"NCC(=O)Nc1ccc(/N=N/c2ccccc2)c(N)n1 [Gly-PAP, Glycyl-Phenazopyridine (6-N-Glycylphenazopyridine)]",Observations of vomitus,dogs,single observation of vomitus
same,AUC of phenazopyridine from 0.9 mg/kg Gly-PAP versus 2.8 mg/kg phenazopyridine HCl,[6]; 0.6 versus 2.5 mg/kg phenazopyridine base,approximately equal AUC
same,Plasma levels of Gly-PAP relative to those for phenazopyridine from Gly-PAP,[6]; Gly-PAP 4.0 mg/kg,< 5%
same,Amount of phenazopyridine delivered to the urine,"[7]; 8.1 mg/kg Gly-PAP versus equivalent phenazopyridine HCl, urine 0 to 24 hours",a greater amount of phenazopyridine was delivered to the urine
same,Exposure (AUC0-24) to Gly-PAP relative to that for phenazopyridine,[7]; Gly-PAP 8.1 mg/kg,less than 10%
same,Plasma Tmax for phenazopyridine (comparison),[7]; Gly-PAP compared to phenazopyridine HCl,increased
same,solubility,[4],> 2000 µg/mL
"Nc1nc(NC(=O)[C@@H](N)Cc2c[nH]c3ccccc23)ccc1/N=N/c1ccccc1 [Tryptophanyl-PAP, Tryptophanyl-Phenazopyridine]",Tmax,"[5]; rats, oral",longer
same,solubility,[4],500 µg/mL
phenazopyridine hydrochloride [PAP•HCl],Tumour induction on long term administration,rats [8],induced adenomas and adenocarcinomas in the large intestine
same,Observations of vomitus,dogs,four observations of vomitus
same,Plasma bioavailability of phenazopyridine,[7]; phenazopyridine HCl versus equivalent Gly-PAP,greater plasma bioavailability
same,Tmax,"[5]; fasted rats, single oral gavage",<60 min
same,AUC0-24,"[5]; fasted rats, single oral gavage, 0-24 hr",182 ± 12 ng·h/mL
same,Tmax,[9],15 min
same,AUC0-6,[9]; SD printed in the row below,105 ng·h/mL
same,Cmax,[9]; water vehicle (0.1N HCl for free base),58 ng/mL
same,Solubility in 0.1N HCl,[4],500 µg/mL
same,Tumour induction on lifetime administration,female mice,caused hepatocellular adenomas and carcinomas
